Measured values taken from PMC5322882, “Alterations in cellular pharmacokinetics and pharmacodynamics of elvitegravir in response to ethanol exposure in HIV-1 infected monocytic (U1) cells” (PLoS ONE, 2017).

Columns and labels:
[1] = Intracellular elvitegravir concentration-time profile (cellular pharmacokinetics) in U1 cells, LC-MS/MS; type: in vitro ADME; settings: human, intracellular EVG in U1 cells
Method: (§1) HIV-infected U937 cell line—the U1 cells were obtained through the NIH AIDS Reagent Program (Germantown, MD). U1 cells were cultured in Roswell Park Memorial Institute (RPMI) 1640 media (Corning Inc, Tewksbury, MA) supplemented with 10% fetal bovine serum (Atlanta biologicals, Atlanta, GA), 1% L-glutamine, nonessential amino acid solution, sodium bicarbonate, and penicillin-streptomycin solution. Cells were plated at 0.9x10^6 cells/well of 6-well plates and were differentiated into macrophages with 100 nM Phorbol 12-myristate 13-acetate (PMA) for 72 hours prior to treatment. On the day of experiment, medium was removed and cells were washed twice with PBS and treated with media containing clinically relevant concentrations of (a) EVG (5 μM), (b) EVG+COBI (2 μM), (c) EVG+ethanol (20 mM), (d) EVG+COBI+ethanol. Ethanol-treated plates were placed in an incubator that humidified with 20 mM ethanol to prevent any loss of ethanol due to evaporation.
(§2) At predetermined time points (0.5, 1, 3, 6, 12, and 24 hours), cells were collected for concentration-time profile experiments and medium was collected for HIV p24 measurement. At each time point, cells were washed twice with PBS and incubated with 400 μL of cold Radioimmunoprecipitation assay (RIPA) buffer for 10 minutes and the cell lysates were collected.
(§3) A previously reported LC-MS/MS method was used to quantitate EVG in cell lysates, culture medium, and plasma samples used in this study. Calibrants (0.003, 0.006, 0.013, 0.025, 0.05, 0.1, 0.15, 0.25, 0.5, and 1 μM) were prepared by serial dilution approach with the corresponding working solutions. EVG extraction from the calibrants and study samples was performed by adding 3-volumes of cold acetonitrile which contained a 138 nM ritonavir (RTV) as internal standard (IS). All samples were centrifuged at 8000 rpm for 10 minutes at 4°C and clear supernatants were transferred into vails with low-volume inserts for LC-MS/MS analysis. Samples (5 μL) were injected onto a Waters Xterra® MS C18 Column (125Å, 3.5 μ, 4.6 X 50 mm) (Waters Corporation, Milford, MA) attached to a Shimadzu Nexera HPLC system coupled with a tandem mass spectrometer (Triple Quad 5500 from AB SCIEX, Framingham, MA) with electron spray ionization in positive mode. Data was acquired and analyzed with the Analyst software package (ver.1.6.2, AB SCIEX, Framingham, MA). Concentrations were quantified by the Quantitative Analysis module (Analyst ver 1.6.2, AB SCIEX, Framingham, MA) from a standard curve fitted with a linear-regression model with a weighting factor of 1/x^2.
(§4) The concentration-time profiles were analyzed by non-compartmental modeling using Phoenix WinNonlin 6.4 (Certara L.P., Princeton, NJ). Area under the curve (AUCtot) was calculated by the log trapezoidal rule by log-linear regression. The maximum concentration achieved (Cmax) and the time to maximum concentration (Tmax) were determined from the concentration-time profiles. Effect of ethanol on EVG AUCtot and Cmax were compared using unpaired t test with Welch's correction. Tmax values were compared using Wilcoxon rank-sum test. All other data involving more than two groups were compared by one way ANOVA and multiple comparisons were performed by Tukey’s post hoc test. ANOVA data was presented along with multiplicity adjusted p values for each comparison. All the statistical analyses were done by Prism 6 (GraphPad Software, La Jolla, CA). A p-value ≤ 0.05 among treatment groups was considered significant.

U1 cells [2] = assay: as above; type: in vitro ADME; settings: for cellular EVG concentration, mean: U1 cells
Method: as §1, §2, §3, §4

HIV-1 replication = assay: HIV p24 ELISA in culture medium of U1 cells (HIV replication); type: cell-based; settings: 24 hours; for HIV p24 level in culture media, mean (Fig 2): percentage of vehicle control (100%), EVG 5 μM, COBI 2 μM, ethanol 20 mM; for HIV p24 level in culture media, mean (Fig 5): percentage of vehicle control, MK-571 50 μM, PSC-833 5 μM; for effect on HIV p24 levels compared to control (in words): Fig 5
Method: as §1, §2
Influence of the combination of drugs on HIV replication was determined by measurement of HIV p24 levels in the cell culture medium. […] The concentration of p24 in the samples was quantitated by comparing with standards’ absorbance values and reported in percentage of control. The vehicle-treated samples were used as control and set as 100%.

CYP3A4 = assay: In-Cell Western analysis of CYP3A4 protein expression in U1 cells; type: cell-based; settings: 24 hours; for change in CYP3A4 expression compared to control (in words): U1 cells; for CYP3A4 fluorescence signal intensity, mean (Fig 3A): relative response compared to vehicle controls, normalized to β-actin
Method: (§5) Detecting low levels of protein expression in native cells using traditional Western blotting can be difficult and therefore some studies successfully used In-Cell Western blotting (ICW) to quantify minor alterations in protein expression. We used manufacturer recommended (LI-COR Biosciences, NE) protocol in this study to perform ICW. U1 cells (0.03x10^6) were plated in sterile 96-well plates and differentiated with 100 nM PMA for 72 hours at 37°C in a humidified incubator while maintaining 5% CO2 air flow. On the day of treatment, each well was flushed with sterile PBS (250 μl) followed by addition of a 250 μl RPMI media containing various combinations of drugs previously mentioned. These plates were incubated for 24 hours prior to fixation. Medium from each well was removed by careful aspiration and cells were immediately fixed by addition of cold (-20°C) methanol (200 μl) followed by incubation of the plate at ambient temperature for 10 minutes with gentle shaking. Following incubation, methanol was carefully removed and wells were gently rinsed thrice with PBS (200 μl). After the last rinse, blocking was done by adding a 150 μl of Li-Cor blocking buffer and incubating the plate at room temperature with gentle shaking for 1.5 hours. Meanwhile, the primary antibodies were diluted in Li-Cor Odyssey blocking buffer using following dilutions: 3A4 (Rabbit Pab, Abcam # ab3572) 1: 200; MRP1 (mouse mab, Millipore # MAB4100) 1:50; MDR1(mouse mab, Millipore # MAB4334) 1:50; β-Actin (Mouse mAb Cell Signaling # 3700) 1:2000; β-Actin (Rabbit mAb Cell Signaling # 4970) 1:200. After blocking, 50 μl of desired antibody added to test wells and incubated overnight at 4°C with gentle shaking. On the following day, wells were washed five times with 200 μl PBS containing Tween-20 (0.1%) for 5 minutes at room temperature with gentle shaking. Secondary antibodies, goat anti-Mouse Mab (Li-Cor # 926–68170) and goat anti-Rabbit Mab (Li-Cor # 827–08365) were diluted in 1:1000 ratio in blocking buffer (0.2% -Tween-20, 0.01% SDS). After the final wash, wells were incubated with 50 μl of secondary antibody mixture for 1 hour in the dark at room temperature. After five washes, plates were scanned using Li-Cor Odyssey® SA and analyzed by using Image Studio V4.0 software (LI-COR Biosciences, NE). Background was subtracted from control wells and target protein signal intensities from triplicate wells were normalized to their respective β-actin intensities. Signal intensities were expressed as percent of relative responses (mean ± standard errors of mean) compared to vehicle controls.

MRP1 = assay: In-Cell Western analysis of MRP1 protein expression in U1 cells; type: cell-based; settings: 24 hours; for change in MRP1 expression compared to control (in words): U1 cells; for MRP1 fluorescence signal intensity, mean (Fig 3B): relative response compared to vehicle controls, normalized to β-actin
Method: as §5

MDR1 = assay: In-Cell Western analysis of MDR1 protein expression in U1 cells; type: cell-based; settings: 24 hours; for change in MDR1 expression compared to control (in words): U1 cells; for MDR1 fluorescence signal intensity, mean (Fig 3C): relative response compared to vehicle controls, normalized to β-actin
Method: as §5

U1 cells [3] = assay: Intracellular elvitegravir concentration in the presence of MRP1 or MDR1 inhibitors and cobicistat + ethanol; type: in vitro ADME; settings: cells co-treated with EVG+COBI+ethanol (control), 24 hours
Method: as §2

[4] = design: method as in PMID 10817729; settings: ethanol 0.7 g/kg with 600 mg of abacavir, 25 male HIV-infected individuals; cited from earlier work

Row | SMILES | HIV p24 level in culture media, mean (Fig 2) (HIV-1 replication) [%] | change in CYP3A4 expression compared to control (in words) (CYP3A4) | CYP3A4 fluorescence signal intensity, mean (Fig 3A) (CYP3A4) [%] | change in MRP1 expression compared to control (in words) (MRP1) | MRP1 fluorescence signal intensity, mean (Fig 3B) (MRP1) [%] | change in MDR1 expression compared to control (in words) (MDR1) | MDR1 fluorescence signal intensity, mean (Fig 3C) (MDR1) [%] | HIV p24 level in culture media, mean (Fig 5) (HIV-1 replication) [%] | effect on HIV p24 levels compared to control (in words) (HIV-1 replication; U1 cells) | also measured
1 | COc1cc2c(cc1Cc1cccc(Cl)c1F)c(=O)c(C(=O)O)cn2[C@H](CO)C(C)C [EVG, elvitegravir] | 70.3 | no change | 104.7 | no effect | 100 | no influence | 91.21 |  |  | Cmax at 5 μM ([1]; EVG 5 μM, COBI 2 μM, ethanol 20 mM, mean ± SEM): 82 ± 4 µM; Tmax at 5 μM ([1]; median (range)): 12 h; cellular EVG concentration, mean (U1 cells [2]; 0.5 hours): 41.39 μM/mg of protein; cellular EVG concentration, mean (U1 cells [2]; 1 hour): 51.13 μM/mg of protein; cellular EVG concentration, mean (U1 cells [2]; 3 hours): 59.00 μM/mg of protein; cellular EVG concentration, mean (U1 cells [2]; 6 hours): 66.27 μM/mg of protein; cellular EVG concentration, mean (U1 cells [2]; 12 hours): 78.01 μM/mg of protein; cellular EVG concentration, mean (U1 cells [2]; 24 hours): 72.02 μM/mg of protein; AUCtot (U1 cells [2]; intracellular EVG in PMA-differentiated U1 cells, 0 to 24 hours, EVG 5 μM, COBI 2 μM, ethanol 20 mM, mean ± SEM): 1733 ± 122 μMXh/mg; mean exposure (AUCtot) (U1 cells [2]; intracellular EVG in U1 cells): 1733 ± 122 µM·h/mg; reduction of HIV p24 levels (HIV-1 replication; U1 cells, compared to vehicle): 30%
2 | CCO [EtOH, ethanol] | 135.4 | significant induction | 167.5 | upregulated | 167.2 | significant induction | 128 | 135.4 |  | increase in HIV p24 levels compared to vehicle control (HIV-1 replication; U1 cells): 35%
3 | CN(C)C(=O)CCSC(SCCC(=O)O)c1cccc(/C=C/c2ccc3ccc(Cl)cc3n2)c1 (centres unmarked) [MK-571] |  |  |  |  |  |  |  | 104.1 | did not show any effect | 
4 | C/C=C/C[C@@H](C)C(=O)[C@H]1C(=O)N[C@@H](C(C)C)C(=O)N(C)CC(=O)N(C)[C@@H](CC(C)C)C(=O)N[C@@H](C(C)C)C(=O)N(C)[C@@H](CC(C)C)C(=O)N[C@@H](C)C(=O)N[C@H](C)C(=O)N(C)[C@@H](CC(C)C)C(=O)N(C)[C@@H](CC(C)C)C(=O)N(C)[C@@H](C(C)C)C(=O)N1C [PSC-833] |  |  |  |  |  |  |  | 98.57 | did not show any effect | effect on intracellular EVG concentration (in words) (U1 cells [3]): no significant effect
5 | Nc1nc(NC2CC2)c2ncn([C@H]3C=C[C@@H](CO)C3)c2n1 [abacavir] |  |  |  |  |  |  |  |  |  | increase in half-life with ethanol consumption [4]: 26%; increase in maximum concentration with ethanol consumption [4]: 15%; increase in total exposure with ethanol consumption [4]: 41%
